Experimental findings from patent US10316017B2, “COT modulators and methods of use thereof” (Gilead Sciences, Inc., priority 2015, dated 2019) are described below.

In general, EC50 refers to the concentration that produces a half-maximal response. The IC50 is the concentration needed to halve the response being measured.

Where two headings read alike, the source gives them in different places.

For test [1], the system named is TNFα production in LPS-stimulated human monocytes. The experiment in a line: Cot Monocyte TNFα Cell Based Assay. The conditions noted are these: Homo sapiens, Monocyte, read-out: EC50 TNF. The essentials:
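Percent-of-control values derive from TR-FRET ratios of TNFα in spun-down media, referenced to unstimulated and LPS-stimulated wells. Exposure: 1 h compound preincubation, then 50 pg/ml LPS for 4 h, both at 37 °C, with 0.5% final DMSO.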

For test [2], the target named is T1, human Cot catalytic domain (30-397 amino acids) (Homo sapiens, UniProt P41279).
T1 construct: Purified recombinant human Cot catalytic domain (30-397 amino acids) was purchased from Cama Biosciences; purchased Cama Biosciences (so in the source)
T1 sequence (P41279 30-397): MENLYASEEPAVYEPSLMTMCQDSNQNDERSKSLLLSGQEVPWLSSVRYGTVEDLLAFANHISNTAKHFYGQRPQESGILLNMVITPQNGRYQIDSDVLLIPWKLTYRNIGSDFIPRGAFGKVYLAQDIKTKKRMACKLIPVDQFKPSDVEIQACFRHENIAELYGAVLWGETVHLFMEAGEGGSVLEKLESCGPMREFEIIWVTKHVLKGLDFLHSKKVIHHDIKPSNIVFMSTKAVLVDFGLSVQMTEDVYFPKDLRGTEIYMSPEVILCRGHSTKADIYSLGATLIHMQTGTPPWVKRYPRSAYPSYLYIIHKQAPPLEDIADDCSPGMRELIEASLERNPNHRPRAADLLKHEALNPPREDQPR
The experiment in a line: High Throughput Cot Biochemical Assay (KinEASE TR-FRET). To be noted: read-out: IC50 HTRF. The essentials: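 Phosphorylation of 1 μM XL665-STK3 peptide by 5 nM Cot catalytic domain was measured by time-resolved FRET using a europium […] antibody. ATP was 400 μM; buffer was 10 mM MOPS pH 7.0 with Mg2+ and DTT.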
(In general: TR-FRET usually uses a lanthanide donor and a delayed reading to cut background.)

Where [3] appears, read: LPS-stimulated human monocytes, TNFα TR-FRET.
Where [4] appears, read: Cot KinEASE TR-FRET, 400 μM ATP.
Setting [5] is: TNFα in LPS-stimulated human monocytes.
[6] abbreviates: Cot biochemical HTRF (KinEASE TR-FRET) assay.
[7] abbreviates: Cot KinEASE TR-FRET (HTRF) biochemical assay, 400 μM ATP.

Regarding `Cc1c([C@H](Nc2cc(Cl)c3ncc(C#N)c(NCC(C)(C)C)c3c2)c2cn(C3(C(F)(F)F)CC3)nn2)cccc1-n1ccnn1` [Example 1063, (S)-8-chloro-6-(((2-methyl-3-(1H-1,2,3-triazol-1-yl)phenyl)(1-(1-(trifluoromethyl)cyclopropyl)-1H-1,2,3-triazol-4-yl)methyl)amino)-4-(neopentylamino)quinoline-3-carbonitrile], the EC50 in test [1] (setting [3]) came to 73 nM. Moreover, the IC50 in test [2] (setting [4]) is 6 nM.
With `CC(C)(C)N1CCC(n2cc([C@@H](Nc3cc(Cl)c4ncc(C#N)c(NCc5ccccc5Cl)c4c3)c3ccccc3)nn2)CC1` [Example 616, (S)-6-(((1-(1-(tert-butyl)piperidin-4-yl)-1H-1,2,3-triazol-4-yl)(phenyl)methyl)amino)-8-chloro-4-((2-chlorobenzyl)amino)quinoline-3-carbonitrile], in test [1] (setting [5]), the EC50 amounted to 2180 nM. For the same molecule, the IC50 in test [2] (setting [6]) came to 40 nM.
Regarding `N#Cc1cnc2c(Cl)cc(N[C@@H](c3ccccc3)c3cn(CC4(N5CCCC5)COC4)nn3)cc2c1Nc1ccc(F)c(Cl)c1` [Example 544], the EC50 in test [1] (setting [5]) is 1190 nM. Further, in test [2] (setting [6]), the IC50 was 94 nM.
Regarding `CC(C)(C)CNc1c(C#N)cnc2c(C#N)cc(N[C@@H](c3ccc(F)cc3)c3cn(C4(c5ccncc5)CC4)nn3)cc12` [Example 983, (S)-6-(((4-fluorophenyl)(1-(1-(pyridin-4-yl)cyclopropyl)-1H-1,2,3-triazol-4-yl)methyl)amino)-4-(neopentylamino) quinoline-3,8-dicarbonitrile], the EC50 in test [1] (setting [3]) came to 39 nM. Further, in test [2] (setting [4]), the IC50 came out at 11 nM.
Regarding `[2H][C@](Nc1cc(Cl)c2ncc(C#N)c(Nc3cccc(Cl)c3)c2c1)(c1cccc(C#N)c1)c1cn(C2CC2)nn1` [Example 274, (S)-8-chloro-4-((3-chlorophenyl)amino)-6-(((3-cyanophenyl)(1-cyclopropyl-1H-1,2,3-triazol-4-yl)methyl-d)amino)quinoline-3-carbonitrile], in test [1] (setting [5]), the EC50 amounted to 254 nM. In addition, the IC50 in test [2] (setting [7]) was found to be 5 nM.
For `Cc1c([C@H](Nc2cc(C#N)c3ncc(C#N)c(NCC(C)(C)C)c3c2)c2cn(C3(C(F)(F)F)CC3)nn2)cccc1-n1cnnc1` [Example 1072, (S)-6-(((2-methyl-3-(4H-1,2,4-triazol-4-yl)phenyl)(1-(1-(trifluoromethyl)cyclopropyl)-1H-1,2,3-triazol-4-yl)methyl)amino)-4-(neopentylamino)quinoline-3,8-dicarbonitrile], the EC50 in test [1] (setting [3]) was at least 1000 nM. For the same molecule, in test [2] (setting [4]), the IC50 is 3 nM.
As for `[2H][C@@](Nc1cc(Cl)c2ncc(C#N)c(N[C@H](CCC#N)c3ccccc3)c2c1)(c1cn(C2CC2)nn1)c1cccc(C#N)c1C` [Example 136, 8-chloro-4-(((R)-3-cyano-1-phenylpropyl)amino)-6-(((S)-(3-cyano-2-methylphenyl)(1-cyclopropyl-1H-1,2,3-triazol-4-yl)methyl-d)amino) quinoline-3-carbonitrile], the EC50 in test [1] (setting [5]) came to 20 nM. In test [2] (setting [7]), the IC50 came to 1 nM.
For `[2H][C@](Nc1cc(Cl)c2ncc(C#N)c(N[C@@H]3C[C@H]3CC)c2c1)(c1ccc(F)cc1)c1cn(C2CC2)nn1` [Example 155, 8-chloro-6-(((S)-(1-cyclopropyl-1H-1,2,3-triazol-4-yl)(4-fluorophenyl)methyl-d)amino)-4-(((1R,2R)-2-ethylcyclopropyl)amino)quinoline-3-carbonitrile] the same measures were 348 nM and 36 nM.
With `[2H]c1c([C@@]([2H])(Nc2cc(Cl)c3ncc(C#N)c(NCC(C)(C)C)c3c2)c2c(F)cccc2Cl)nnn1C1(C)CC1` [Example 1046, (S)-8-chloro-6-(((2-chloro-6-fluorophenyl)(1-(1-methylcyclopropyl)-1H-1,2,3-triazol-4-yl-5-d)methyl-d)amino)-4-(neopentylamino)quinoline-3-carbonitrile], in test [1] (setting [3]), the EC50 was at least 1000 nM. The IC50 in test [2] (setting [4]) worked out at 142 nM.
On to `Cc1c(-c2ccccn2)cccc1[C@H](Nc1cc(Cl)c2ncc(C#N)c(NCC(C)(C)C)c2c1)c1cn(C2(C(F)(F)F)CC2)nn1` [Example 1118, (S)-8-chloro-6-(((2-methyl-3-(pyridin-2-yl)phenyl)(1-(1-(trifluoromethyl)cyclopropyl)-1H-1,2,3-triazol-4-yl)methyl)amino)-4-(neopentylamino)quinoline-3-carbonitrile], for which the EC50 in test [1] (setting [3]) worked out at 921 nM. Also, the IC50 in test [2] (setting [4]) was found to be 28 nM.
Consider `Cn1cc(C(Nc2cc(Br)c3ncc(C#N)c(Nc4ccc(F)c(Cl)c4)c3c2)c2ccc(F)cc2)nn1` (centres unmarked) [Compound 8, 8-bromo-4-((3-chloro-4-fluorophenyl)amino)-6-(((4-fluorophenyl) (1-methyl-1H-1,2,3-triazol-4-yl)methyl)amino) quinoline-3-carbonitrile], for which the EC50 in test [1] (setting [5]) was 571 nM. Also, in test [2] (setting [7]), the IC50 was determined as 33 nM.
With `CC(C)(O)Cn1cc([C@@H](Nc2cc(Cl)c3ncc(C#N)c(Nc4ccc(F)c(Cl)c4)c3c2)c2ccccc2)nn1` [Example 610, (S)-8-chloro-4-((3-chloro-4-fluorophenyl)amino)-6-(((1-(2-hydroxy-2-methylpropyl)-1H-1,2,3-triazol-4-yl)(phenyl)methyl)amino) quinoline-3-carbonitrile], the EC50 in test [1] (setting [5]) was 337 nM. For the same molecule, in test [2] (setting [6]), the IC50 is 14 nM.
In the case of `N#Cc1cnc2c(Cl)cc(NC(c3ccccc3)c3cn(C4CCNCC4)cn3)cc2c1Nc1ccc(F)c(Cl)c1` (centres unmarked) [Example 642, 8-chloro-4-((3-chloro-4-fluorophenyl)amino)-6-((phenyl (1-(piperidin-4-yl)-1H-imidazo-4-yl)methyl)amino)quinoline-3-carbonitrile], in test [1] (setting [5]), the EC50 worked out at 383 nM. Also, in test [2] (setting [6]), the IC50 is 17 nM.
For `[2H][C@](Nc1cc(Cl)c2ncc(C#N)c(N[C@H](CC)c3ccccc3)c2c1)(c1ccc(F)cc1)c1c[nH]nn1` [Example 415, 8-chloro-6-(((S)-(4-fluorophenyl)(1H-1,2,3-triazol-4-yl)methyl-d)amino)-4-(((R)-1-phenylpropyl)amino)quinoline-3-carbonitrile] the same measures were 409 nM and 9 nM.
Consider `CC(C)(C)N1CCC(n2cc([C@@H](Nc3cc(Cl)c4ncc(C#N)c(Nc5cncc(Cl)c5)c4c3)c3ccc(Cl)cc3)nn2)CC1` [Example 692, (S)-6-(((1-(1-(tert-butyl)piperidin-4-yl)-1H-1,2,3-triazol-4-yl)(4-chlorophenyl)methyl)amino)-8-chloro-4-((5-chloropyridin-3-yl)amino)quinoline-3-carbonitrile], for which the EC50 in test [1] (setting [5]) is 797 nM. The IC50 in test [2] (setting [6]) was 51 nM.
For `CCN1CCC(n2cc([C@H](c3ccccc3)N(CC)c3cc(Cl)c4ncc(C#N)c(Nc5ccc(F)c(Cl)c5)c4c3)nn2)CC1` [Example 792, (S)-8-chloro-4-((3-chloro-4-fluorophenyl)amino)-6-(ethyl((1-(1-ethylpiperidin-4-yl)-1H-1,2,3-triazol-4-yl)(phenyl)methyl)amino) quinoline-3-carbonitrile] the same measures were 91 nM and 5 nM.
Turning to `N#Cc1cnc2c(Cl)cc(N[C@H](c3cn(C4CC4)nn3)c3cccc(Cl)c3Cl)cc2c1Nc1cnc(F)c(F)c1` [Example 293, (S)-8-chloro-6-(((1-cyclopropyl-1H-1,2,3-triazol-4-yl)(2,3-dichlorophenyl)methyl)amino)-4-((5,6-difluoropyridin-3-yl)amino)quinoline-3-carbonitrile], in test [1] (setting [5]), the EC50 worked out at 469 nM. Further, in test [2] (setting [7]), the IC50 was 24 nM.
On the same counts, the results for `CC(O)c1cccc([C@H](Nc2cc(Cl)c3ncc(C#N)c(Nc4ccc(F)c(Cl)c4)c3c2)c2cn(C3CCN(C(C)(C)C)CC3)nn2)c1` (some centres unmarked) [Compound 22] are 158 nM and 2 nM.
With `CC1(CNc2c(C#N)cnc3c(Cl)cc(N[C@@H](c4ccccc4)c4cn(C5CCN(C(C)(C)C)CC5)nn4)cc23)COC1` [Example 452, (S)-6-(((1-(1-(tert-butyl)piperidin-4-yl)-1H-1,2,3-triazol-4-yl)(phenyl)methyl)amino)-8-chloro-4-(((3-methyloxetan-3-yl)methyl)amino)quinoline-3-carbonitrile], the EC50 in test [1] (setting [5]) was found to be 420 nM. Also, in test [2] (setting [6]), the IC50 is 98 nM.
As for `Cc1c([C@H](Nc2cc(C#N)c3ncc(C#N)c(NCC(C)(C)C)c3c2)c2cn(C3(C(F)F)CC3)nn2)cccc1-n1ccnc1` [Example 1077], the EC50 in test [1] (setting [3]) turned out to be 77 nM. Also, in test [2] (setting [4]), the IC50 came to 2 nM.
Turning to `CC(C)(C)N1CCC(n2cc([C@@H](Nc3cc(Cl)c4ncc(C#N)c(N[C@H]5CCCOC5)c4c3)c3ccccc3)nn2)CC1` [Example 539, 6-(((S)-(1-(1-(tert-butyl)piperidin-4-yl)-1H-1,2,3-triazol-4-yl)(phenyl)methyl)amino)-8-chloro-4-(((S)-tetrahydro-2H-pyran-3-yl)amino)quinoline-3-carbonitrile], the EC50 in test [1] (setting [5]) turned out to be 3070 nM. Further, in test [2] (setting [6]), the IC50 was found to be 337 nM.
As for `Cc1c(C#N)cccc1[C@H](Nc1cc(C#N)c2ncc(C#N)c(NCC(C)(C)C)c2c1)c1cn(C2(CF)CC2)nn1` [Example 1147, (S)-6-(((3-cyano-2-methylphenyl)(1-(1-(fluoromethyl)cyclopropyl)-1H-1,2,3-triazo1-4-yl)methyl)amino)-4-(neopentylamino)quinoline-3,8-dicarbonitrile], the half-maximal effective concentration (EC50) in test [1] (setting [3]) is 15 nM. The half-maximal inhibitory concentration (IC50) in test [2] (setting [4]) stood at 2 nM.
